# PubChem BioAssay AID2060601 (Molecular Pharmacology Branch, DTP, NCI, 2025)
# Several values for one entry are separate records, joined by “and”; a condition that tells them apart may be missing. Equal entries are not always repeated.
# System: 874868-142-R-J2-PDC complex spheroids, growth % test/control
# Assay: Anticancer human tumor 874868-142-R-J2-PDC patient-derived head and neck squamous carcinoma cell line growth inhibition [CLK]
# Conditions: for viability, T/C: stronger effect = lower value
# How it was run: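 Multi-cell-type spheroids combined patient-derived tumor cells with HUVEC endothelial cells and human mesenchymal stem cells. Paired agents were dosed in half-log steps down from about clinical Cmax, or from 10 microM where Cmax was unknown.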
# [1] = curve of first compound, second compound 0.0316 µM
# [2] = curve of first compound, second compound 0.1 µM
# [3] = curve of first compound, second compound 0.316 µM
# [4] = curve of first compound, second compound 1 µM
# [5] = curve of first compound, second compound 3.16 µM
# [6] = curve of first compound, second compound 10 µM
# [7] = second compound 0.0316 µM, first compound 0.0316 µM
# [8] = second compound 0.0316 µM, first compound 0.1 µM
# [9] = second compound 0.1 µM, first compound 0.0316 µM
# [10] = second compound 0.1 µM, first compound 0.1 µM
# [11] = second compound 0.316 µM, first compound 0.0316 µM
# [12] = second compound 0.316 µM, first compound 0.1 µM
# [13] = second compound 1 µM, first compound 0.0316 µM
# [14] = second compound 1 µM, first compound 0.1 µM
# [15] = second compound 3.16 µM, first compound 0.0316 µM
# [16] = second compound 3.16 µM, first compound 0.1 µM
# [17] = second compound 10 µM, first compound 0.0316 µM
# [18] = second compound 10 µM, first compound 0.1 µM
# [19] = second compound 0.0316 µM, first compound 0.316 µM
# [20] = second compound 0.0316 µM, first compound 1 µM
# [21] = second compound 0.0316 µM, first compound 3.16 µM
# [22] = second compound 0.0316 µM, first compound 10 µM
# [23] = second compound 0.1 µM, first compound 0.316 µM
# [24] = second compound 0.1 µM, first compound 1 µM
# [25] = second compound 0.1 µM, first compound 3.16 µM
# [26] = second compound 0.1 µM, first compound 10 µM
# [27] = second compound 0.316 µM, first compound 0.316 µM
# [28] = second compound 0.316 µM, first compound 1 µM
# [29] = second compound 0.316 µM, first compound 3.16 µM
# [30] = second compound 0.316 µM, first compound 10 µM
# [31] = second compound 1 µM, first compound 0.316 µM
# [32] = second compound 1 µM, first compound 1 µM
# [33] = second compound 1 µM, first compound 3.16 µM
# [34] = second compound 1 µM, first compound 10 µM
# [35] = second compound 3.16 µM, first compound 0.316 µM
# [36] = second compound 3.16 µM, first compound 1 µM
# [37] = second compound 3.16 µM, first compound 3.16 µM
# [38] = second compound 3.16 µM, first compound 10 µM
# [39] = second compound 10 µM, first compound 0.316 µM
# [40] = second compound 10 µM, first compound 1 µM
# [41] = second compound 10 µM, first compound 3.16 µM
# [42] = second compound 10 µM, first compound 10 µM
# 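Further: spheroids exposed to the compounds for 7 days.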
# 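Wherever viability, T/C is given: 100% = DMSO vehicle control viability.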
smiles,measurement,setting,value
Cn1ncnc1[C@H]1c2n[nH]c(=O)c3cc(F)cc(c23)N[C@@H]1c1ccc(F)cc1 + CNC(=O)c1ccc(Nc2nc(OC3CCCC3)c3c(-c4ccc5nc(C)oc5c4)c[nH]c3n2)c(OC)c1,IC50,[1],> 100 nM
same,IC50,[2],> 100 nM
same,IC50,[3],> 100 nM
same,IC50,[4],< 0.316 nM
same,IC50,[5],< 0.316 nM
same,IC50,[6],< 0.316 nM
same,"viability, T/C","second compound 0.0316 µM, first compound 0.000316 µM",97.6%
same,"viability, T/C","second compound 0.0316 µM, first compound 0.001 µM",92.7%
same,"viability, T/C","second compound 0.0316 µM, first compound 0.00316 µM",102%
same,"viability, T/C","second compound 0.0316 µM, first compound 0.01 µM",94.6%
same,"viability, T/C",[7],85.1%
same,"viability, T/C",[8],73.7%
same,"viability, T/C","second compound 0.1 µM, first compound 0.000316 µM",85%
same,"viability, T/C","second compound 0.1 µM, first compound 0.001 µM",68.8%
same,"viability, T/C","second compound 0.1 µM, first compound 0.00316 µM",90.1%
same,"viability, T/C","second compound 0.1 µM, first compound 0.01 µM",79.2%
same,"viability, T/C",[9],73.5%
same,"viability, T/C",[10],66.6%
same,"viability, T/C","second compound 0.316 µM, first compound 0.000316 µM",61.4%
same,"viability, T/C","second compound 0.316 µM, first compound 0.001 µM",54.3%
same,"viability, T/C","second compound 0.316 µM, first compound 0.00316 µM",51.5%
same,"viability, T/C","second compound 0.316 µM, first compound 0.01 µM",56.3%
same,"viability, T/C",[11],59.7%
same,"viability, T/C",[12],46.3%
same,"viability, T/C","second compound 1 µM, first compound 0.000316 µM",42.7%
same,"viability, T/C","second compound 1 µM, first compound 0.001 µM",50.8%
same,"viability, T/C","second compound 1 µM, first compound 0.00316 µM",40.6%
same,"viability, T/C","second compound 1 µM, first compound 0.01 µM",36.9%
same,"viability, T/C",[13],40.8%
same,"viability, T/C",[14],40.7%
same,"viability, T/C","second compound 3.16 µM, first compound 0.000316 µM",44.5%
same,"viability, T/C","second compound 3.16 µM, first compound 0.001 µM",36.2%
same,"viability, T/C","second compound 3.16 µM, first compound 0.00316 µM",39.2%
same,"viability, T/C","second compound 3.16 µM, first compound 0.01 µM",39%
same,"viability, T/C",[15],44%
same,"viability, T/C",[16],34%
same,"viability, T/C","second compound 10 µM, first compound 0.000316 µM",44%
same,"viability, T/C","second compound 10 µM, first compound 0.001 µM",40.5%
same,"viability, T/C","second compound 10 µM, first compound 0.00316 µM",39.4%
same,"viability, T/C","second compound 10 µM, first compound 0.01 µM",39.5%
same,"viability, T/C",[17],47.6%
same,"viability, T/C",[18],31%
C=C(F)C(=O)N1CCN(c2nc(OCC3CCCN3C)nc3c2CCN(c2cccc4cccc(Cl)c24)C3)CC1CC#N (stereo not drawn),"viability, T/C",compound 0.0316 µM,81.4% and 94.5%
same,"viability, T/C",compound 0.1 µM,95.2% and 103%
same,"viability, T/C",compound 0.316 µM,76.2% and 82.3%
same,"viability, T/C",compound 1 µM,68.4% and 87.2%
same,"viability, T/C",compound 3.16 µM,53.2% and 64.6%
same,"viability, T/C",compound 10 µM,1.63% and 4.44%
same,IC50,curve of compound,3200 nM and 4140 nM
C=C(F)C(=O)N1CCN(c2nc(OCC3CCCN3C)nc3c2CCN(c2cccc4cccc(Cl)c24)C3)CC1CC#N (stereo not drawn) + CN1CCN(c2cc(C(=O)Nc3cc4cc(-c5cnn(C)c5)ccc4cn3)ccn2)CC1,IC50,[1],4160 nM
same,IC50,[2],2800 nM
same,IC50,[3],< 31.6 nM
same,IC50,[4],< 31.6 nM
same,IC50,[5],< 31.6 nM
same,IC50,[6],< 31.6 nM
same,"viability, T/C",[7],99.9%
same,"viability, T/C",[8],85.3%
same,"viability, T/C",[19],92%
same,"viability, T/C",[20],93.2%
same,"viability, T/C",[21],60.8%
same,"viability, T/C",[22],15.7%
same,"viability, T/C",[9],69.1%
same,"viability, T/C",[10],70%
same,"viability, T/C",[23],75%
same,"viability, T/C",[24],62%
same,"viability, T/C",[25],48.8%
same,"viability, T/C",[26],4.16%
same,"viability, T/C",[11],16.7%
same,"viability, T/C",[12],17.8%
same,"viability, T/C",[27],22.6%
same,"viability, T/C",[28],16.4%
same,"viability, T/C",[29],23.8%
same,"viability, T/C",[30],0.16%
same,"viability, T/C",[13],0.51%
same,"viability, T/C",[14],0.57%
same,"viability, T/C",[31],2.72%
same,"viability, T/C",[32],0.61%
same,"viability, T/C",[33],0.21%
same,"viability, T/C",[34],0.13%
same,"viability, T/C",[15],0.32%
same,"viability, T/C",[16],0.27%
same,"viability, T/C",[35],0.26%
same,"viability, T/C",[36],0.45%
same,"viability, T/C",[37],1.88%
same,"viability, T/C",[38],0.15%
same,"viability, T/C",[17],0.24%
same,"viability, T/C",[18],0.24%
same,"viability, T/C",[39],2.62%
same,"viability, T/C",[40],0.28%
same,"viability, T/C",[41],0.53%
same,"viability, T/C",[42],0.23%
COC1C=CCC(C)C(C)S(=O)(=O)NC(=O)c2ccc3c(c2)N(CC2CCC21)CC1(CCCc2cc(Cl)ccc21)CO3 (stereo not drawn) + CN1CCN(c2cc(C(=O)Nc3cc4cc(-c5cnn(C)c5)ccc4cn3)ccn2)CC1,IC50,[1],1390 nM
same,IC50,[2],1150 nM
same,IC50,[3],< 31.6 nM
same,IC50,[4],< 31.6 nM
same,IC50,[5],< 31.6 nM
same,IC50,[6],< 31.6 nM
same,"viability, T/C",[7],101%
same,"viability, T/C",[8],93.2%
same,"viability, T/C",[19],66.2%
same,"viability, T/C",[20],60.8%
same,"viability, T/C",[21],34.7%
same,"viability, T/C",[22],18.2%
same,"viability, T/C",[9],77.1%
same,"viability, T/C",[10],74.3%
same,"viability, T/C",[23],65.2%
same,"viability, T/C",[24],56.1%
same,"viability, T/C",[25],15.2%
same,"viability, T/C",[26],8.09%
same,"viability, T/C",[11],21.6%
same,"viability, T/C",[12],14.9%
same,"viability, T/C",[27],11.8%
same,"viability, T/C",[28],6.03%
same,"viability, T/C",[29],6.07%
same,"viability, T/C",[30],5.99%
same,"viability, T/C",[13],0.48%
same,"viability, T/C",[14],0.33%
same,"viability, T/C",[31],1.14%
same,"viability, T/C",[32],0.2%
same,"viability, T/C",[33],2.7%
same,"viability, T/C",[34],1.73%
same,"viability, T/C",[15],0.85%
same,"viability, T/C",[16],0.74%
same,"viability, T/C",[35],0.27%
same,"viability, T/C",[36],0.44%
same,"viability, T/C",[37],0.33%
same,"viability, T/C",[38],1.12%
same,"viability, T/C",[17],0.79%
same,"viability, T/C",[18],0.24%
same,"viability, T/C",[39],0.61%
same,"viability, T/C",[40],0.22%
same,"viability, T/C",[41],1.51%
same,"viability, T/C",[42],0.24%
